Assay results from patent US4447434A, “Substituted dibenzodiazepinones” (Dr. Karl Thomae GmbH, priority 1982, dated 1984).
pIC50: −log10 of the molar value. Like-named read-outs stand apart in the source and are kept apart here.

Columns and labels:
[1] = biological target: muscarinic receptors (cerebral cortex); test: Binding to muscarinic receptors, cerebral cortex (displacement of 3H-N-methylscopolamine); set-up: species or system rat (male Sprague-Dawley); conditions: cerebral cortex homogenate 1:3000; 0.3 n molar 3H-NMS; 30° C, 45 min, pH 7.4; read-out: Receptor binding tests IC50, Cortex
Procedure: (§1) 2. Studies of binding to muscarinic receptors: Determination of the IC50 value
(§2) The organ donors were male Sprague-Dawley rats with a body weight of from 180 to 220 g. After the heart, stomach and cerebral cortex had been removed, the remainder of the operation was carried out in ice-cold Hepes-HCl buffer (pH 7.4; 100 m molar NaCl, 10 m molar MgCl2). The smooth muscle of the fundus of the stomach was separated from the mucous membrane of the stomach and subjected to preliminary homogenization. The whole heart was cut up with scissors. All the organs were then homogenized in a Potter apparatus.
(§3) For the binding test, the homogenized organs were diluted as follows:
(§4) The homogenized organ preparations were incubated at a specific concentration of the radiolabelled compound and with a series of concentrations of the nonradioactive test substances in an Eppendorf centrifuge tube at 30° C. The duration of incubation was 45 minutes. 0.3 n molar ^3 H-N-methylscopolamine (^3 H-NMS) was used as the radiolabelled compound. After incubation had been brought to an end by centrifuging at 14000 g, the radioactivity in the pellet was determined. It represents the sum of the specific and nonspecific binding of ^3 H-NMS. The proportion of nonspecific binding was defined as the radioactivity which was bound in the presence of 1μ molar quinuclidinylbenzylate. Four measurements were taken in each case. The IC50 values of the non-labelled test substances were determined graphically. They represent the concentration of test substance at which the specific binding of ^3 H-NMS to the muscarinic receptors in the various organs was inhibited by 50%.

[2] = biological target: muscarinic receptors (smooth muscle fundus of stomach); test: Binding to muscarinic receptors, smooth muscle of the fundus of the stomach (displacement of 3H-N-methylscopolamine); set-up: species or system rat (male Sprague-Dawley); conditions: smooth muscle of fundus homogenate 1:100; 0.3 n molar 3H-NMS; 30° C, 45 min, pH 7.4; read-out: Receptor binding tests IC50, Smooth muscle fundus of stomach
Procedure: as §1, §2, §3
Smooth muscle of the fundus of the stomach: 1:100
as §4

[3] = biological target: T1, muscarinic receptors (heart) (Rattus norvegicus, UniProt P10980); test: Binding to muscarinic receptors, whole heart (displacement of 3H-N-methylscopolamine); set-up: species or system rat (male Sprague-Dawley)
T1 construct: The whole heart was cut up with scissors; from tissue; host or cells: whole heart of male Sprague-Dawley rats, homogenate
T1 sequence (P10980 1-466): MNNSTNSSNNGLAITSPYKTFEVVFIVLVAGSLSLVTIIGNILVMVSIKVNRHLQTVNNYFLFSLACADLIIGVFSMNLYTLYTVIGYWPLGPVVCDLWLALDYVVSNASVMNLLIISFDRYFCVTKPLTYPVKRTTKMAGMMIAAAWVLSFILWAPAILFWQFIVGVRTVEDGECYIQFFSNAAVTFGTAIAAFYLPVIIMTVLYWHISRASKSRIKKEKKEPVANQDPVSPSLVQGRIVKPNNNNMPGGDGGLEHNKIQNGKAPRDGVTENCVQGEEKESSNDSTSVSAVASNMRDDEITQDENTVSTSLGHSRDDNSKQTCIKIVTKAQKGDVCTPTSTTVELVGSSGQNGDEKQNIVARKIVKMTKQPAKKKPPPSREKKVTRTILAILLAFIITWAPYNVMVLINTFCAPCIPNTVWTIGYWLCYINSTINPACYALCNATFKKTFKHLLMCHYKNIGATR
Procedure: as §1, §2, §3, §4

[4] = system: oxotremorine-induced lesions in the mucous membrane of the stomach; test: Oxotremorine test: antiulcerative effect (protection against lesions of the mucous membrane of the stomach); assay type: in vivo, rat (female albino, Crl:COBS-CD (SD) BR); conditions: Rattus norvegicus, iv; for ED50: read-out: Oxotremorine Test, Antiulcerative effect ED50; for ED70: read-out: Oxotremorine Test, Antiulcerative effect ED70
Procedure: (§5) Oxotremorine, a specific agonist for muscarinic receptors, produces lesions in the mucous membrane of the stomach in rats and increases their secretion of saliva. This test method was chosen so that any selective activity of an antimuscarinic substance on the stomach could be identified.
(§6) 10 female albino rats (of the Crl:COBS-CD (SD) BR strain) with a body weight of from 120 to 150 g were used in each treatment group and were kept without food for 24 hours before the start of the test but given free access to drinking water.
(§7) In order to determine, in preliminary tests, the muscarinic effect of oxotremorine on each of the symptoms studied, a dosage/activity curve was drawn up with at least three dosages for each symptom.
(§8) When testing the antimuscarinic substances, the dosage of oxotremorine which triggered the symptom in question in 90 to 100% of the animals in the preliminary tests was used.
Lesions in mucous membrane of stomach: 0.62 mg/kg i.v.
(§9) Each antimuscarinic substance was administered intravenously in uniformly graduated doses 15 minutes before the oxotremorine was administered. Control groups were given corresponding quantities of the solvent and suspending agent instead of the test substance.
(§10) Immediately after the oxotremorine was administered, the animals were placed in a glass case for 15 minutes and observed.
(§11) The ED50 values were determined using the method described by LITCHFIELD and WILCOXON (J. Pharmacol. Exp. Ther. 96, 99, 1949).
The effects on lesions of the mucous membrane of the stomach were evaluated as follows:
The lesions of the gastric mucous membrane were produced by intravenous injection of 0.62 mg/kg of oxotremorine 30 minutes after the oral administration of 1 mg/kg of neostigmine (a cholinesterase inhibitor). 60 minutes after the administration of the neostigmine, the animals were killed, the stomachs were removed and opened and examined for the presence of any lesions in the mucous membrane. The protective effect of the test substances was expressed as the percentage inhibition (percentage of animals without lesions). The ED50 and ED70 values were determined using the method of LITCHFIELD and WILCOXON (see above).

[5] = system: oxotremorine-induced secretion of saliva; test: Oxotremorine test: inhibition of salivation; assay type: in vivo, rat (female albino, Crl:COBS-CD (SD) BR); conditions: Rattus norvegicus, iv, 0.25 h, read-out: Oxotremorine Test, Inhibition of salivation ED50
Procedure: as §5, §6, §7, §8
Secretion of saliva: 0.083 mg/kg i.v.
as §9, §10, §11

[6] = Mydriasis (effect on the pupil size); conditions: rat, in vivo, iv; pupil size observed for 10 minutes; double blind
Procedure: The effect of the test substances on the pupil size in rats was investigated as follows:
The substances were administered intravenously to groups of 10 animals in at least three uniformly graduated doses. […] The percentage of test animals in which mydriasis occurred was determined. The ED50 values were again determined using the method of LITCHFIELD and WILCOXON (see above).

[7] = 15 min before oxotremorine 0.62 mg/kg i.v., neostigmine 1 mg/kg oral
[8] = i.v., 15 min before oxotremorine 0.083 mg/kg i.v., double blind

Row | Compound | pIC50 [1] | pIC50 [2] | pIC50 [3] | ED50 [4, 7] | ED70 [4, 7] | ED50 [5, 8] | ED50 at 10 min [6] | pIC50 ([3]; whole heart homogenate 1:250, 0.3 n molar 3H-NMS, 30° C, 45 min, pH 7.4, read-out: Receptor binding tests IC50, Heart) | ED50 [4] | ED70 [4] | ED50 [5]
1 | CN1CC=C(C(=O)N2c3ccccc3NC(=O)c3ccccc32)CC1 [Substance A, 5,10-dihydro-5-[(1-methyl-1,2,5,6-tetrahydro-4-pyridinyl)-carbonyl]-11H-dibenzo[b,e][1,4]diazepin-11-one] | 7.52 | 7.00 | 6.60 | 0.0031 mg/kg | 0.0065 mg/kg | 0.08 mg/kg | 0.0366 mg/kg |  |  |  | 
2 | CN1CCC(CC(=O)N2c3ccccc3C(=O)Nc3cccc(Cl)c32)CC1 [Substance B, 6-chloro-5,10-dihydro-5-[(1-methyl-4-piperidinyl)acetyl]-11H-dibenzo[b,e][1,4]diazepin-11-one] | 7.55 | 6.77 | 6.70 | 0.0044 mg/kg | 0.0084 mg/kg | 0.23 mg/kg | 0.138 mg/kg |  |  |  | 
3 | CN1[C@@H]2CC[C@H]1C[C@@H](CC(=O)N1c3ccccc3NC(=O)c3ccccc31)C2 [Substance C, endo-5,10-dihydro-5-[(8-methyl-8-azabicyclo[3,2,1]-oct-3-yl)acetyl]-11H-dibenzo[b,e][1,4]diazepin-11-one] | 7.82 | 6.70 |  |  |  |  | 0.054 mg/kg | 7.26 | 0.0011 mg/kg | 0.0038 mg/kg | 0.105 mg/kg
